Patent US8889704B2 (Array BioPharma Inc., priority 2011, dated 2014)
Structures can show the parent of a compound that is named as a salt.

Legend:
Format in all cases: biochemical
PIM-1 = PIM-1 (Homo sapiens, UniProt P11309); assay: Enzyme PIM-1 Assay ([33P]ATP incorporation into PIM2tide, filter plate); details: averaged IC50; 35 μM ATP, 7.5 μM PIM2tide, 0.25 nM PIM-1, 60 min at 22° C.
Outline: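 Radiometric assay: 0.25 nM PIM-1 phosphorylates 7.5 μM PIM2tide with 35 μM [γ-33P]ATP in 20 mM MOPS pH 7.4, 10 mM MgCl2, 1 mM DTT, 0.005% Tween-20, 60 min at 22 °C. Product captured on P81 filters, scintillation counted; 10-point 3-fold curve from 10 μM top, 2% DMSO, IC50 by 4-parameter logistic fit of POC.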

[1] = target: T1, GST-tagged recombinant full-length human Pim-2 (Homo sapiens, UniProt Q9P1W9); assay: PIM-2 Assay (as Example A); details: averaged IC50; 4 μM ATP, 1.0 μM PIM2tide, 1.5 nM Pim-2
T1 construct: GST-tagged recombinant full-length human Pim-2; GST
T1 sequence (Q9P1W9 whole entry): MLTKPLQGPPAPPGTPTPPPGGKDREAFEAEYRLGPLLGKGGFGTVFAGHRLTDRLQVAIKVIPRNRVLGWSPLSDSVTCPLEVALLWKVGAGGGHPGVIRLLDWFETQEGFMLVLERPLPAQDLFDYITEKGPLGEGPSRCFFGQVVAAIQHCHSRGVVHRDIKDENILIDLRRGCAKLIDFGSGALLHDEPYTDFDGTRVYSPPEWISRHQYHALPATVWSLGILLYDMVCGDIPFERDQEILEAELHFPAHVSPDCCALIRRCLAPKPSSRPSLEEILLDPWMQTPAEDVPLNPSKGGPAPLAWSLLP
Outline: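 Radiometric filter-binding assay: GST-tagged full-length human Pim-2 (1.5 nM) phosphorylates 1.0 μM PIM2tide with 4 μM [γ-33P]ATP for 60 min at 22 °C in pH 7.4 MOPS buffer, 2% DMSO. 10-point 3-fold dilutions from 10 μM top dose; IC50 from 4-parameter fit of percent of control.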

recombinant rat PIM-3 = recombinant rat PIM-3 (Rattus norvegicus, UniProt O70444); assay: PIM-3 Assay (as Example A); details: averaged IC50; 30 μM ATP, 3.75 μM PIM2tide, 0.5 nM PIM-3
Outline: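 Recombinant rat PIM-3 (0.5 nM) with 3.75 μM PIM2tide and 30 μM [γ-33P]ATP in MOPS pH 7.4 buffer, 60 min at 22 °C; labelled peptide captured on phosphocellulose filters and counted by scintillation. 10-point curve (top dose 10 μM, 2% DMSO); IC50 from 4-parameter fit of percent of control.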

Chain of PIM-1 (P11309 whole entry, species assumed): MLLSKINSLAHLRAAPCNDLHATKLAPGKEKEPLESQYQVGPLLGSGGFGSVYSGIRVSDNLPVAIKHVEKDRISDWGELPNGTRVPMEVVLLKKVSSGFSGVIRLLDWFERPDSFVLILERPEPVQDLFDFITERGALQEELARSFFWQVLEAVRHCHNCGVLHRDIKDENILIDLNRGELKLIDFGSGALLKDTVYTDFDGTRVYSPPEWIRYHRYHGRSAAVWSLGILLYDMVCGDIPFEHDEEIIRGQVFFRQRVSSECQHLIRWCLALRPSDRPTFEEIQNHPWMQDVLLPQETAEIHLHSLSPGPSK

Structure (SMILES)	IC50 (PIM-1)	IC50 [1]	IC50 (recombinant rat PIM-3)
N[C@H]1CCN([C@H](c2ccc3nnc(-c4ccc5cccc(F)c5n4)n3c2)C(F)(F)F)C1 [Example 168, (S)-1-((R)-2,2,2-trifluoro-1-(3-(8-fluoroquinolin-2-yl)-[1,2,4]triazolo[4,3-a]pyridin-6-yl)ethyl)pyrrolidin-3-amine dihydrochloride]	1.75 nM	> 100 nM	15 nM
CC(C)c1cccc2ccc(-c3nnc4ccc([C@@H](N5CC[C@H](N)C5)C(F)(F)F)cn34)nc12 [Example 41, (S)-1-((R)-2,2,2-trifluoro-1-(3-(8-isopropylquinolin-2-yl)-[1,2,4]triazolo[4,3-a]pyridin-6-yl)ethyl)pyrrolidin-3-amine dihydrochloride]	0.11 nM	16 nM	2 nM
N[C@H]1CCN([C@H](c2ccc3nnc(-c4ccc5cc(F)c(O)cc5n4)n3c2)C(F)(F)F)C1 [Example 157, 2-(6-((R)-1-((S)-3-aminopyrrolidin-1-yl)-2,2,2-trifluoroethyl)-[1,2,4]triazolo[4,3-a]pyridin-3-yl)-6-fluoroquinolin-7-ol hydrochloride]	3.44 nM	239 nM	12 nM
C[C@]1(N)CCN([C@@H](c2ccc3nnc(-c4ccc5cccc(C6CC6)c5n4)n3c2)C(F)(F)F)C1 [Example 96, (S)-1-((S)-1-(3-(8-cyclopropylquinolin-2-yl)-[1,2,4]triazolo[4,3-a]pyridin-6-yl)-2,2,2-trifluoroethyl)-3-methylpyrrolidin-3-amine dihydrochloride]	0.12 nM	5.4 nM	0.5 nM
CC(C)Oc1cccc2ccc(-c3nnc4ccc([C@H](N5CC[C@@H](O)C5)C(F)(F)F)cn34)nc12 [Example 103, (R)-1-((S)-2,2,2-trifluoro-1-(3-(8-isopropoxyquinolin-2-yl)-[1,2,4]triazolo[4,3-a]pyridin-6-yl)ethyl)pyrrolidin-3-ol]	0.1 nM	> 100 nM	3.1 nM
CC(C)Oc1cccc2ccc(-c3nnc4ccc([C@@H](N5CC[C@](N)(CF)C5)C(F)(F)F)cn34)nc12 (single isomer, unassigned) [Example 155, dihydrochloride]	0.34 nM	45 nM	1.3 nM
COCCOc1ccc2ccc(-c3nnc4ccc([C@@H](N5CC[C@H](N)C5)C(F)(F)F)cn34)nc2c1C1CC1 [Example 152, (S)-1-((R)-1-(3-(8-cyclopropyl-7-(2-methoxyethoxy)quinolin-2-yl)-[1,2,4]triazolo[4,3-a]pyridin-6-yl)-2,2,2-trifluoroethyl)pyrrolidin-3-amine dihydrochloride]	0.25 nM	42 nM	0.3 nM
CC(C)Oc1cccc2ccc(-c3nnc4ccc([C@@H](N5CC[C@](C)(N)C5)C(F)(F)F)cn34)nc12 [Example 93, (S)-3-methyl-1-((R)-2,2,2-trifluoro-1-(3-(8-isopropoxyquinolin-2-yl)-[1,2,4]triazolo[4,3-a]pyridin-6-yl)ethyl)pyrrolidin-3-amine dihydrochloride]	0.2 nM	83 nM	0.9 nM
COCCOc1ccc2ccc(-c3nnc4ccc([C@@H](N5CC[C@H](N)C5)C(F)(F)F)cn34)nc2c1F [Example 179, (S)-1-((R)-2,2,2-trifluoro-1-(3-(8-fluoro-7-(2-methoxyethoxy)quinolin-2-yl)-[1,2,4]triazolo[4,3-a]pyridin-6-yl)ethyl)pyrrolidin-3-amine dihydrochloride]	2.44 nM	> 100 nM	4.1 nM
COc1ccc2ccc(-c3nnc4ccc([C@@H](N5CC[C@H](N)C5)C(F)(F)F)cn34)nc2c1 [Example 139, (S)-1-((R)-2,2,2-trifluoro-1-(3-(7-methoxyquinolin-2-yl)-[1,2,4]triazolo[4,3-a]pyridin-6-yl)ethyl)pyrrolidin-3-amine dihydrochloride]	0.58 nM	> 100 nM	4.9 nM

Next, values leading:

IC50 (PIM-1)	IC50 [1]	IC50 (recombinant rat PIM-3)	Structure (SMILES)
0.37 nM	> 100 nM	0.9 nM	C[C@H](O)COc1cccc2ccc(-c3nnc4ccc([C@@H](N5CC[C@H](N)C5)C(F)(F)F)cn34)nc12 [Example 187, (S)-1-(2-(6-((R)-1-((S)-3-aminopyrrolidin-1-yl)-2,2,2-trifluoroethyl)-[1,2,4]triazolo[4,3-a]pyridin-3-yl)quinolin-8-yloxy)propan-2-ol dihydrochloride]
0.14 nM	244 nM	0.2 nM	Cc1nn(C)cc1-c1cc2nc(-c3nnc4ccc([C@@H](N5CC[C@H](N)C5)C(F)(F)F)cn34)ccc2cc1F [Example 205, (3 S)-1-((1R)-1-(3-(7-(1,3-dimethyl-1H-pyrazol-4-yl)-6-fluoroquinolin-2-yl)-[1,2,4]triazolo[4,3-a]pyridin-6-yl)-2,2,2-trifluoroethyl)pyrrolidin-3-amine dihydrochloride]
0.37 nM	> 100 nM	1 nM	COCc1cccc2ccc(-c3nnc4ccc([C@@H](N5CC[C@H](N)C5)C(F)(F)F)cn34)nc12 [Example 185, (S)-1-((R)-2,2,2-trifluoro-1-(3-(8-(methoxymethyl)quinolin-2-yl)-[1,2,4]triazolo[4,3-a]pyridin-6-yl)ethyl)pyrrolidin-3-amine dihydrochloride]
1.11 nM	93 nM	1 nM	CCC1(N)CCN([C@@H](c2ccc3nnc(-c4ccc5cccc(OC)c5n4)n3c2)C(F)(F)F)C1 (single isomer, unassigned; diastereomer 2) [Example 244, dihydrochloride]
0.13 nM	55 nM	0.3 nM	N[C@H]1CCN([C@H](c2ccc3nnc(-c4ccc5cc(F)cc(OCCCO)c5n4)n3c2)C(F)(F)F)C1 [Example 229, 3-(2-(6-((R)-1-((S)-3-aminopyrrolidin-1-yl)-2,2,2-trifluoroethyl)-[1,2,4]triazolo[4,3-a]pyridin-3-yl)-6-fluoroquinolin-8-yloxy)propan-1-ol dihydrochloride]
0.14 nM	123 nM	0.2 nM	CC1(COc2ccc3ccc(-c4nnc5ccc([C@@H](N6CC[C@H](N)C6)C(F)(F)F)cn45)nc3c2)COC1 [Example 198, (S)-1-((R)-2,2,2-trifluoro-1-(3-(7-((3-methyloxetan-3-yl)methoxy)quinolin-2-yl)-[1,2,4]triazolo[4,3-a]pyridin-6-yl)ethyl)pyrrolidin-3-amine diformate]
0.08 nM	22.7 nM	0.1 nM	CO[C@@H](C)COc1cc2nc(-c3nnc4ccc([C@H](N5CC[C@](C)(N)C5)C(F)(F)F)cn34)ccc2cc1F [Example 322, (S)-3-methyl-1-((S)-2,2,2-trifluoro-1-(3-(6-fluoro-7-((S)-2-methoxypropoxy)quinolin-2-yl)-[1,2,4]triazolo[4,3-a]pyridin-6-yl)ethyl)pyrrolidin-3-amine di-hydrochloride]
0.4 nM	468 nM	1.1 nM	CCOc1cc2nc(-c3nnc4ccc([C@@H](N5CC[C@@](C)(N)C5)C(F)(F)F)cn34)ccc2cc1F [Example 293, (R)-1-((R)-1-(3-(7-ethoxy-6-fluoroquinolin-2-yl)-[1,2,4]triazolo[4,3-a]pyridin-6-yl)-2,2,2-trifluoroethyl)-3-methylpyrrolidin-3-amine hydrochloride]
